Laboratory results reported in patent US20260014194A1, “COMBINATIONS COMPRISING METAP2 INHIBITORS FOR THE TREATMENT OF CANCER” (SynDevRx, Inc., priority 2022, published 2026).

Columns and labels:
[1] = system: MCF-7 cells; experiment: MCF-7 mammary fat pad tumor model: tumor volume and tumor growth inhibition; assay type: in vivo, NU/j mice; conditions: inavolisib 25 mg/kg PO QD
Procedure: (§1) Animals: Female NU/j mice, 6 weeks of age upon delivery, were received and acclimated at 5 mice per cage for a minimum of 7 days. Mice were housed in autoclaved caging with autoclaved water throughout the course of the study. The animals had free access to food (irradiated chow 2920X) and water. The animals were housed in a temperature and humidity-controlled room with a 12-hour light cycle.
Cell Culture: MCF-7 cells were cultured in Dulbecco's Modified Eagle Medium (DMEM) with 10% FBS.
Tumor Cell Implantation: On the day of implantation, cells were washed 1× with phosphate-buffered saline (PBS). Following washing, cells were pelleted (5 min @1000 rpm, RT) and then counted with a hemocytometer. A cell concentration of 5×10^6 per mouse was re-suspended in an appropriate amount of PBS and 1:1 Matrigel (kept on ice until implantation). Forty-eight hours prior to cell implantation, a 17-β estradiol pellet (0.36 mg 60-day slow release pellet) was implanted subcutaneously between the scapulae of each mouse. […]
Tumor Assessment: prior to cell implantation, all animals were ear tagged. Beginning 5 days post cell implantation, tumors were measured two times weekly (length×width) using a wireless Mitutoyo UWAVE-T digital calipers in conjunction with UWAVE-R to record measurements. […] Randomization was determined by tumor volume of all of the mice. […]

[2] = Body weight in MCF-7 tumor-bearing mice; assay type: in vivo, NU/j mice; conditions: FIG. 34; compared to vehicle group; Compound 1 8 mg/kg, inavolisib 25 mg/kg
Procedure: as §1
Inavolisib was administered orally (PO) once per day (QD) at an amount of 25 mg/kg for the duration of the study.

C[C@H](Nc1ccc2c(c1)OCCn1cc(N3C(=O)OC[C@H]3C(F)F)nc1-2)C(N)=O [Inavolisib, inavolisib]
Tumor Growth Inhibition ([1]; Day 25, Compound 1 8 mg/kg SC Q4D): 74% | Tumor Volume on Day 25 ([1]; starting tumor volume 59 mm^3, Compound 1 8 mg/kg SC Q4D, vehicle 469 mm^3): 167 mm^3 | Weight loss (body weight change over the study) [2]: increased as compared to the vehicle group
